Experimental data from ChEMBL document CHEMBL1154506, “Discovery and development of the anticancer agent salinosporamide A (NPI-0052)” (Bioorg Med Chem, 2009).

Columns and labels:
HCT-116 = test: Cytotoxicity against human HCT116 cells; type: functional, cell-based
[1] = Cytotoxicity against human NCI60 cells; type: functional

For `C[C@@]12OC(=O)[C@]1([C@@H](O)[C@@H]1C=CCCC1)NC(=O)[C@@H]2CCCl` [MARIZOMIB], which IC50 (HCT-116) is on record?
Its IC50 is no more than 2 ng/mL.

What about the GI50 [1] of the same compound?
Its GI50 is less than 10 nM.
